For data set [1] the following is noted: background art; cited from earlier work.
In data set [2] the target is T1, S1P1 (Homo sapiens, UniProt P21453). The conditions noted are these: background art; cited from earlier work.
The subject of data set [3] is S1P5. As to conditions: background art; cited from earlier work.
Data set [4] has as its system S1P3 receptor. The conditions noted are these: background art; cited from earlier work.
Data set [5] concerns the target T1, S1P1. The data set can be described thus: β-arrestin recruitment after S1P1 receptor activation, S1P1 overexpressing cell line (luminescence). The conditions noted are these: based on the two EC50 values of Table 1.

T1 sequence (P21453 whole entry): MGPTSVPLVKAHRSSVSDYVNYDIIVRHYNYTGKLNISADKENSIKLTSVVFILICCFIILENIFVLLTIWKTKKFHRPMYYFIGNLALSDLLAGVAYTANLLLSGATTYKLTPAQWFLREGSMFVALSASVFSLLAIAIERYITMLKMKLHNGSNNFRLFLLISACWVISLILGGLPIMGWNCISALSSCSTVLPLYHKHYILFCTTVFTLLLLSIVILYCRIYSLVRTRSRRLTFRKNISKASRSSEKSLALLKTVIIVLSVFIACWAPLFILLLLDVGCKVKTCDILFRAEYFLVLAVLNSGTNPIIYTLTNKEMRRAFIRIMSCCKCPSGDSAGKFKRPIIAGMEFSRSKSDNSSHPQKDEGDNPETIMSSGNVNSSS

Regarding `CCc1cc(/C(C)=N/OCc2ccc(C3CCCCC3)c(C(F)(F)F)c2)ccc1CN1CC(C(=O)O)C1` [BAF312], the bradycardia side effect result in data set [1] was “bradycardia, a side effect of FTY720, still occurred”. Further, the “activity against S1P1” value in data set [2] is reported as “excellent activity”. Besides, the “activity against S1P5” value in data set [3] is listed as “excellent activity”. For the same molecule, the “activation of S1P3” value in data set [4] is listed as “without activating S1P3”.

Regarding `CC(C)Oc1ccc(-c2ncc(-c3ccc(CN4CC(C(=O)[O-])C4)cc3)[se]2)cc1Cl.[Na+]` [Compound 13, Sodium 1-(4-(2-(3-chloro-4-isopropoxyphenyl)-1,3-selenazole-5-yl)benzyl)azetidine-3-carboxylate], the “S1P1 activity (overall, in words)” value in data set [5] is recorded as “excellent activity”.

For the molecule `CCCCCCCCc1ccc(CCC(N)(CO)CO)cc1` [fingolimod], the bradycardia side effect entry in data set [1] is reported as “causes bradycardia”. Further, the “activation of S1P3” value in data set [4] is on record as “activation of the S1P3 receptor”.

These data come from patent publication US20260355161A1, “NOVEL HETEROCYCLYL-PHENYL-METHYLAMINE DERIVATIVES, PREPARATION METHOD THEREOF, AND USE THEREOF IN PREVENTING, ALLEVIATING, OR TREATING MULTIPLE SCLEROSIS” (Cureverse Incorporated, priority 2022, published 2026).
